Data from patent US11220494B2, “Cyclin dependent kinase inhibitors” (Pfizer Inc., priority 2018, dated 2022).
pIC50, pKi: −log10 of the molar value.

Assays:
CDK6/Cyclin D3 = CDK6/Cyclin D3 (Homo sapiens (Human), UniProt Q00534); assay: CDK6/Cyclin D3 mobility shift assay; type: biochemical; details: activated CDK6/Cyclin D3, 3.5 mM ATP, fit to Morrison equation; read-out: CDK6_D3 Ki
Procedure: CDK6/Cyclin D3 Mobility Shift Assay
(§1) The purpose of the CDK6/Cyclin D3 assay is to evaluate the inhibition (% inhibition, Kiapp and Ki values) in the presence of small molecule inhibitors by using a fluorescence based microfluidic mobility shift assay. […] The mobility shift assay electrophoretically separates the fluorescently labeled peptides (substrate and phosphorylated product) following the kinase reaction. Both substrate and product are measured and the ratio of these values is used to generate % conversion of substrate to product by the LabChip EZ Reader.
The reaction was stopped after 95 minutes by the addition of 50 μL of 30 mM EDTA. Ki determinations were made from a plot of the fractional velocity as a function of inhibitor concentration fit to the Morrison equation with the enzyme concentration as a variable.

CDK4/Cyclin D1 = CDK4/Cyclin D1 (Homo sapiens (Human), UniProt P11802); assay: CDK4/Cyclin D1 mobility shift assay; type: biochemical; details: activated CDK4/Cyclin D1, 3.5 mM ATP, fit to Morrison equation; read-out: CDK4D1 Ki
CDK4/Cyclin D1, sequence (P11802 whole entry): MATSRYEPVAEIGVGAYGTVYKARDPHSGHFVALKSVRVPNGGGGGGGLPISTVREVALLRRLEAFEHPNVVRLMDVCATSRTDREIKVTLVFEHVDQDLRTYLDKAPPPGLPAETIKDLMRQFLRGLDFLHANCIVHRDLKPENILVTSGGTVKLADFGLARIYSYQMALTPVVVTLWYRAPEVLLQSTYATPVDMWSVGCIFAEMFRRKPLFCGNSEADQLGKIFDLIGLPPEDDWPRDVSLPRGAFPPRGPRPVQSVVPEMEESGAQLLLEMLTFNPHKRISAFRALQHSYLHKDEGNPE
CDK4/Cyclin D1, sequence (P24385 whole entry partner): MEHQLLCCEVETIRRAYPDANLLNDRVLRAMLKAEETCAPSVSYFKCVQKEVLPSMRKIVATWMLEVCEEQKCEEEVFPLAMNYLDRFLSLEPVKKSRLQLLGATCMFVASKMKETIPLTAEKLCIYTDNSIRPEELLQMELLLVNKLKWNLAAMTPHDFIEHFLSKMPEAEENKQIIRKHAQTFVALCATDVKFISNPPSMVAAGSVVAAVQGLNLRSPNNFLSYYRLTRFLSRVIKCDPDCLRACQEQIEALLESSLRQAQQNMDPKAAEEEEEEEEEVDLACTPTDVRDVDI
Procedure: Biological Assays and Data CDK4/Cyclin D1 Mobility Shift Assay
as §1, with “CDK4/Cyclin D1” for “of the CDK6/Cyclin D3”, “Conversion” for “conversion”
The reaction was stopped after 195 minutes by the addition of 50 μL of 30 mM EDTA. Ki determinations were made from a plot of the fractional velocity as a function of inhibitor concentration fit to the Morrison equation with the enzyme concentration as a variable.
For CDK4 and CDK6 mobility shift assays, see also Morrison, J. F. (1969) Kinetics of the reversible inhibition of enzyme-catalysed reactions by tight-binding inhibitors, Biochimica et biophysica acta 185, 269-286; and Murphy, D. J. (2004) Determination of accurate KI values for tight-binding enzyme inhibitors: an in silico study of experimental error and assay design, Analytical biochemistry 327, 61-67.

CDK6 = CDK6 (Homo sapiens (Human), UniProt Q00534); assay: Phospho-Serine 795 Rb ELISA assay in MV4-11 cells; type: cell-based; details: treated overnight, phospho-Ser795 Rb, read-out: CDK6 pRB S795 ELISA MV4-11 cells IC50
CDK6, sequence (Q00534 whole entry): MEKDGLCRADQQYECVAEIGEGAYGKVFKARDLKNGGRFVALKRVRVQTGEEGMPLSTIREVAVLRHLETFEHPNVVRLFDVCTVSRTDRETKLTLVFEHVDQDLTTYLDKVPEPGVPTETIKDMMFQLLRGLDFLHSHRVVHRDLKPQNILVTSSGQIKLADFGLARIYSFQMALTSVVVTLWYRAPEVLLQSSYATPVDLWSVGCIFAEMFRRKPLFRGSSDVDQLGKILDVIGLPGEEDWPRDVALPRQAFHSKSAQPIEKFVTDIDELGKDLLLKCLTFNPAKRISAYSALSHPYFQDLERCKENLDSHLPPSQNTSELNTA
CDK6, sequence (P30281 whole entry partner): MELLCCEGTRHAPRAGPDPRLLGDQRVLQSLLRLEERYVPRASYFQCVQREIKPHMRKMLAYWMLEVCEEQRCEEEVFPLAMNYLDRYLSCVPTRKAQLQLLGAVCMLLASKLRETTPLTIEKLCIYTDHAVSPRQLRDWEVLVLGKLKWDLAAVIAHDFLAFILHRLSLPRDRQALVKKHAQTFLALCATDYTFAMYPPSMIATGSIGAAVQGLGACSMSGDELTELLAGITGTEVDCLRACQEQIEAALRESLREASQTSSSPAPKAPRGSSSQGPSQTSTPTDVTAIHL
Procedure: (§2) JEKO-1 or MV4-11 cells were seeded at 15,000 or 20,000 cells per well, respectively, in 100 μL growth media and allowed to incubate at 37° C. with 5% CO2 overnight. The following day, compounds were serially diluted from a 10 mM top dose for an 11-point 3-fold dilution curve in DMSO. Compounds were intermediately diluted 1:200 into growth media prior to diluting 1:5 on cells for final concentration 10 μM to 0.1 nM in 0.1% DMSO on cells. JEKO-1 and MV4-11 cells were treated were treated overnight, at 37° C. with 5% CO2. Cells were lysed in 100 μL/well CST lysis buffer on ice and transferred to pre-coated and blocked anti-phospho-Ser795 Rb ELISA plates for overnight incubation at 4° C. Plates were washed to remove residual, unbound cellular proteins and total Rb detection antibody added for 90 minutes at 37° C. Following wash to remove unbound total Rb antibody, the HRP tagged antibody was allowed to bind for 30 minutes at 37° C. Following wash to remove unbound HRP antibody, Glo Substrate Reagent was added and incubated protected from light for 5 to 10 minutes. Plates were read in luminescence mode and IC50 values calculated.

CDK4 = CDK4 (Homo sapiens (Human), UniProt P11802); assay: Phospho-Serine 795 Rb ELISA assay in JEKO-1 cells; type: cell-based; details: treated overnight, phospho-Ser795 Rb, read-out: CDK4 pRB S795 ELISA JEKO-1 cells IC50
CDK4, sequence (P11802 2-303): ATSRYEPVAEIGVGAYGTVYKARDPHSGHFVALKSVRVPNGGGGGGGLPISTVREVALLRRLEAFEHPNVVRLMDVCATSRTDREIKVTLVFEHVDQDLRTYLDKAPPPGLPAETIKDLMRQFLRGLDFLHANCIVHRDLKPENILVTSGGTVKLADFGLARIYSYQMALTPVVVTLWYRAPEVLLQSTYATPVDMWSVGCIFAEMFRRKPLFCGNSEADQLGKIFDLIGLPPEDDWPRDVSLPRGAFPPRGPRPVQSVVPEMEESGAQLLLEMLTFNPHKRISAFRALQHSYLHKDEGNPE
CDK4, sequence (P24385 whole entry partner): as the sequence (P24385 whole entry partner) above
Procedure: Phospho-Serine 795 Rb ELISA Assays
as §2

CDK6/Cyclin D3, sequence (Q00534 whole entry): as the sequence (Q00534 whole entry) above
CDK6/Cyclin D3, sequence (P30281 whole entry partner): as the sequence (P30281 whole entry partner) above

Row | Compound | pKi (CDK6/Cyclin D3) | pKi (CDK4/Cyclin D1) | pIC50 (CDK6) | pIC50 (CDK4)
1 | CS(=O)(=O)N1CC[C@@H](Nc2ncc(Cl)c(-c3cc(F)c4ncn(C5CC5)c4c3)n2)[C@H](O)C1 [Example A15] | 8.62 | 9.52 | – | –
2 | CC(C)c1c2cc(-c3nc(N[C@@H]4CCN(S(C)(=O)=O)C[C@H]4O)ncc3Cl)cc(F)c2nn1C [Example A25] | 8.89 | – | 7.51 | 7.88
3 | CS(=O)(=O)N1CC[C@@H](Nc2ncc(Cl)c(-c3cc(F)c4ncn(C5CCOC5)c4c3)n2)[C@H](O)C1 (some centres unmarked) [Example A14] | 8.34 | 9.30 | – | –
4 | CC(C)n1cnc2c(Cl)cc(-c3nc(N[C@@H]4CCN(S(C)(=O)=O)C[C@H]4O)ncc3Cl)cc21 [Example A16] | 8.57 | 9.70 | 7.01 | 7.59

The remaining compounds from weak to strong by pKi (CDK6/Cyclin D3), led by results:

Row | pKi (CDK6/Cyclin D3) | pKi (CDK4/Cyclin D1) | pIC50 (CDK6) | pIC50 (CDK4) | Compound
5 | 7.23 | 8.82 | 6.01 | 6.91 | CC(C)n1c(C(C)(C)O)nc2c(F)cc(-c3nc(N[C@H]4CCOC[C@H]4O)ncc3Cl)cc21 [Example A35]
6 | 8.64 | 9.70 | 7.11 | 7.60 | CC1(C)COCc2nc3c(F)cc(-c4nc(N[C@@H]5CCN(S(C)(=O)=O)C[C@H]5O)ncc4F)cc3n21 [Example A18]
7 | 9.40 | 10.00 | 7.87 | 8.00 | CCC1COCc2nc3c(F)cc(-c4nc(N[C@@H]5CCN(S(C)(=O)=O)C[C@H]5O)ncc4F)cc3n21 (some centres unmarked) [Example A17]
